Results taken from patent publication US20170008928A1, “NOVEL PEPTIDES AND PEPTIDE DERIVATIVES AND USES THEREOF” (Novo Nordisk A/S, priority 2015, published 2017).
Read-outs that look alike come from different tables or passages of the source. Starred links: 1 amine or outer side, 2 acyl side, 3 side chain; linkers in the order of their positions; H or OH if unused. Non-standard residues stand in square brackets, D forms with d. Residues, ends and D or L forms follow the SMILES beside them. *: point of attachment. Phe(4-CH2SO3H) = N[C@@H](Cc1ccc(CS(=O)(=O)O)cc1)C(=O)O; sY = N[C@@H](Cc1ccc(OS(=O)(=O)O)cc1)C(=O)O; C18 diacid = O=C(O)CCCCCCCCCCCCCCCCC(=O)*; C16 diacid = O=C(O)CCCCCCCCCCCCCCC(=O)*; γGlu = O=C(O)[C@H](CCC(=O)[*:2])N[*:1]; 1Nal = N[C@@H](Cc1cccc2ccccc12)C(=O)O; C14 diacid = O=C(O)CCCCCCCCCCCCC(=O)*; NMeF = CN[C@@H](Cc1ccccc1)C(=O)O; dNMeD = CN[C@H](CC(=O)O)C(=O)O; Nle = CCCC[C@H](N)C(=O)O; AEEA = NCCOCCOCC(=O)O

T1: human cholecystokinin-2 receptor (human, UniProt P32239 1-447)
T1 sequence (looked up): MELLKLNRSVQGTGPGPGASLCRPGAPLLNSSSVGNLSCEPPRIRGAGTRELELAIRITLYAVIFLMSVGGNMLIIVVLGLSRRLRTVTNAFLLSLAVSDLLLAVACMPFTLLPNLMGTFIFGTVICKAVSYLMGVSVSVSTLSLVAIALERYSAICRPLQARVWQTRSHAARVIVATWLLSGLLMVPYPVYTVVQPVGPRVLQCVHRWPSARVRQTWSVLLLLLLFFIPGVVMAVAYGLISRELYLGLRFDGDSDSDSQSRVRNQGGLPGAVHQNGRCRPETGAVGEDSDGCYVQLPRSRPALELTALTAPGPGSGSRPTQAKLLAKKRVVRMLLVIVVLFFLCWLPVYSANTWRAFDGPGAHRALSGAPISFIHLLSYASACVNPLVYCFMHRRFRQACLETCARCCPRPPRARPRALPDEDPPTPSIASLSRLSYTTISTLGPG

T2: human cholecystokinin-1 receptor (human, UniProt P32238 1-428)
T2 sequence (looked up): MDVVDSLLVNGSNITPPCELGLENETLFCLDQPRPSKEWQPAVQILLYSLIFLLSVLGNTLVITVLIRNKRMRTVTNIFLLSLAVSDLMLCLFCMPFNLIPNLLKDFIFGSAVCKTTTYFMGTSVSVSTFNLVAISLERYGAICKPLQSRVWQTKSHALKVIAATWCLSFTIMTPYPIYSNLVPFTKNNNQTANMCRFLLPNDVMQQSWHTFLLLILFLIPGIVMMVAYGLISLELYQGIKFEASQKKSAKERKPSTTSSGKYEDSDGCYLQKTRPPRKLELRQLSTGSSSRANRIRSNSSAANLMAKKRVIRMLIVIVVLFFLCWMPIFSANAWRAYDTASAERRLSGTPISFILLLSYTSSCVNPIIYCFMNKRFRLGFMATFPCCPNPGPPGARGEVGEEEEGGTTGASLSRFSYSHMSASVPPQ

T3: human cholecystokinin-1 receptor (CCK-1R) (Homo sapiens, UniProt P32238)
T3 construct: host or cells: 1321-N1 cells
T3 sequence (P32238 1-428): T2 sequence (looked up)

T4: human cholecystokinin-2 receptor (CCK-2R) (Homo sapiens, UniProt P32239)
T4 construct: host or cells: 1321-N1 cells (plasma membranes prepared by Evotec AG Hamburg)
T4 sequence (P32239 1-447): T1 sequence (looked up)

B1: 2-[2-[2-[[2-[2-[2-[[(4S)-4-Carboxy-4-(13-carboxytridecanoylamino)butanoyl]amino]ethoxy]ethoxy]acetyl]amino]ethoxy]ethoxy]acetyl-Glu-sTyr-Leu-Gly-Trp-Nle-DMeAsp- … (peptide)
peptide: {C14 diacid-γGlu-AEEA-AEEA}-E[sY]LGW[Nle][dNMeD][NMeF]-NH2
SMILES: CCCC[C@H](NC(=O)[C@H](Cc1c[nH]c2ccccc12)NC(=O)CNC(=O)[C@H](CC(C)C)NC(=O)[C@H](Cc1ccc(OS(=O)(=O)O)cc1)NC(=O)[C@H](CCC(=O)O)NC(=O)COCCOCCNC(=O)COCCOCCNC(=O)CC[C@H](NC(=O)CCCCCCCCCCCCC(=O)O)C(=O)O)C(=O)N(C)[C@H](CC(=O)O)C(=O)N(C)[C@@H](Cc1ccccc1)C(N)=O
notes: X = Nle or Nal

How the values were obtained:
[1] = target: T1, human cholecystokinin-2 receptor; assay: cell-based or functional assay
[2] = target: T2, human cholecystokinin-1 receptor; assay: cell-based or functional assay
[3] = target: T3, human cholecystokinin-1 receptor (CCK-1R); assay: In vitro receptor binding to CCK-1R, SPA displacement of [125I]-CCK-8s from plasma membranes; conditions: for CCK-1R binding selectivity (IC50 (CCK-2R)/IC50 (CCK-1R)): ratio of binding IC50 values, >1 = preference for CCK-1R
[4] = target: T4, human cholecystokinin-2 receptor (CCK-2R); assay: In vitro potency on CCK-2R, whole cell functional assay (IP1 accumulation, IP-One HTRF); assay type: cell-based
[5] = target: T3, human cholecystokinin-1 receptor (CCK-1R); assay: In vitro potency on CCK-1R, whole cell functional assay (IP1 accumulation, IP-One HTRF); assay type: cell-based; conditions: for CCK-1R selectivity (EC50 (CCK-2R)/EC50 (CCK-1R)): ratio of functional EC50 values, >1 = preference for CCK-1R
[6] = target: T4, human cholecystokinin-2 receptor (CCK-2R); assay: In vitro receptor binding to CCK-2R, SPA displacement of [125I]-CCK-8s from plasma membranes
[7] = target: T1, human cholecystokinin-2 receptor; assay: SPA competition vs [125I]-CCK-8s, membranes
Experimental: CCK receptor binding assays were performed in 96-well Optiplates (Cat #6005290, PerkinElmer, Waltham, Mass., USA) in a total volume of 200 μl per well.
The plates were sealed and incubated in the dark at +22° C. for 2 hours on a IKA MTS plate shaker (IKA-Werke D-79219 Staufen) set at 300 rpm and thereafter centrifuged at 1500 rpm for 10 minutes in a Heraeus Multifuge 3s centrifuge. SPA bead light emission was measured in a TopCount NXT (PerkinElmer) for 2 min/well after a delay of 60 min.

[8] = 1321-N1 cells stably expressing CCK-2R, IP1 accumulation, highest dose tested 1×10^6 pM, read-out: EC50 (CCK-2R)
[9] = 1321-N1 cells stably expressing CCK-1R, IP1 accumulation, average of min. three replicates, read-out: EC50 (CCK-1R)
[10] = displacement of [125I]-CCK-8s, plasma membranes of 1321-N1 cells expressing CCK-2R, highest dose tested 1×10^7 pM, read-out: IC50 (CCK-2R)
[11] = displacement of [125I]-CCK-8s, plasma membranes of 1321-N1 cells expressing CCK-1R, read-out: IC50 (CCK-1R)

Molecule	EC50 (CCK-2R) [1] [nM]	CCK-1R binding selectivity (IC50 (CCK-2R)/IC50 (CCK-1R)) [3]	EC50 [4, 8] [nM]	EC50 [5, 9] [nM]	IC50 [6, 10] [nM]	IC50 [7] [nM]	further results
2-[2-[2-[[2-[2-[2-[[(4S)-4-Carboxy-4-(17-carboxyheptadecanoylamino)butanoyl]amino]ethoxy]ethoxy]acetyl]amino]ethoxy]ethoxy]acetyl-Asp-sTyr-Nle-Gly-Trp-Nle-DMeAsp-1Nal-amide (peptide)	180						EC50 (CCK-1R) [2]: 0.37 nM
CC(C)C[C@H](NC(=O)[C@H](Cc1ccc(OS(=O)(=O)O)cc1)NC(=O)[C@H](CCC(=O)O)NC(=O)COCCOCCNC(=O)COCCOCCNC(=O)CC[C@H](NC(=O)CCCCCCCCCCCCCCCCC(=O)O)C(=O)O)C(=O)NCC(=O)N[C@@H](Cc1c[nH]c2ccccc12)C(=O)N[C@@H](CCC(N)=O)C(=O)N(C)[C@H](CC(=O)O)C(=O)N(C)[C@@H](Cc1ccccc1)C(N)=O [Example 42, 2-[2-[2-[[2-[2-[2-[[(4S)-4-Carboxy-4-(17-carboxyheptadecanoylamino)butanoyl]amino]ethoxy]ethoxy]acetyl]amino]ethoxy]ethoxy]acetyl-Glu-sTyr-Leu-Gly-Trp-Gln-DMeAsp-MePhe-amide]		very selective	> 1000	0.22	> 10000		CCK-1R selectivity (EC50 (CCK-2R)/EC50 (CCK-1R)) [5]: very selective
CCCC[C@H](NC(=O)[C@H](Cc1ccc(OS(=O)(=O)O)cc1)NC(=O)[C@@H](N)CC(=O)O)C(=O)NCC(=O)N[C@@H](Cc1c[nH]c2ccccc12)C(=O)N[C@@H](CCCC)C(=O)N(C)[C@H](CC(=O)O)C(=O)N[C@@H](Cc1cccc2ccccc12)C(N)=O [Example 54, Asp-sTyr-Nle-Gly-Trp-Nle-DMeAsp-1Nal-amide] (H-D[sY][Nle]GW[Nle][dNMeD][1Nal]-NH2)		84000	290	0.14	2300		IC50 [3, 11]: 0.027 nM; CCK-1R selectivity (EC50 (CCK-2R)/EC50 (CCK-1R)) [5]: 2100
CCCC[C@H](NC(=O)[C@H](Cc1c[nH]c2ccccc12)NC(=O)CNC(=O)[C@H](Cc1ccccc1)NC(=O)[C@H](Cc1ccc(OS(=O)(=O)O)cc1)NC(=O)[C@@H](N)CC(=O)O)C(=O)N(C)[C@H](CC(=O)O)C(=O)N(C)[C@@H](Cc1ccccc1)C(N)=O [Example 78, Asp-sTyr-Phe-Gly-Trp-Nle-DMeAsp-MePhe-amide] (H-D[sY]FGW[Nle][dNMeD][NMeF]-NH2)		32000	> 1000	0.22	920		IC50 [3, 11]: 0.029 nM
CC(C)C[C@H](NC(=O)[C@H](Cc1ccc(OS(=O)(=O)O)cc1)NC(=O)[C@@H](N)CC(=O)O)C(=O)NCC(=O)N[C@@H](Cc1c[nH]c2ccccc12)C(=O)N[C@@H](C)C(=O)N(C)[C@H](CC(=O)O)C(=O)N(C)[C@@H](Cc1ccccc1)C(N)=O [Example 84, Asp-sTyr-Leu-Gly-Trp-Ala-DMeAsp-MePhe-amide] (H-D[sY]LGWA[dNMeD][NMeF]-NH2)							IC50 [3]: 0.53 nM; EC50 [4]: > 1000 nM; EC50 [5]: 0.22 nM; IC50 [6]: > 10000 nM
B1	150					1200	
{C16 diacid-γGlu-AEEA-AEEA}-E[sY]LGW[Nle][dNMeD][NMeF]-NH2 (X = Nle or Nal)	110					590	
{C18 diacid-γGlu-AEEA-AEEA}-D[Phe(4-CH2SO3H)]LGW[Nle][dNMeD][NMeF]-NH2 (X = Nle or Nal)	81					380	
{C18 diacid-γGlu-AEEA-AEEA}-D[sY]HGW[Nle][dNMeD][NMeF]-NH2 (X = Nle or Nal)	> 1000					9000	
